We go through seven compounds from patent US20240425456A1, “DEGRADER” (ASKA PHARMACEUTICAL CO., LTD., priority 2021, published 2024).

Holding throughout (type): cell-based
One assay has as its target T1, JAK1 (Homo sapiens, UniProt P23458).
T1 construct: endogenous in cells; host or cells: Jurkat cells
Kind of assay: Degradation-inducing effect on JAK in Jurkat cells (chemiluminescent Western blotting), JAK1. The conditions noted are these: 1 μmol/L, 6 hours, corrected by GAPDH, DMSO as 100%. How it is done: (§1) The degradation-inducing effect of the compound of the present invention on JAK family proteins was evaluated in vitro using Jurkat cells, of which cell line was derived from human leukemic T cells.
(§2) JAK1, JAK2, JAK3, and Tyk2-positive Jurkat cells were seeded at a density of 1×10^5 cells/mL on 10 cm diameter dishes and then cultured in RPMI 1640 medium (FUJIFILM Wako Pure Chemical: catalog number: 189-02025) containing 10% FBS (Thermo Fisher Scientific: catalog number: 10437-028) at 5% CO2 and 37° C. for 3 days. Then, each of the test compounds (compounds of Examples 1 to 11 and Comparative Examples 1 and 2) was added to the dish at a final concentration of 1 μmol/L, and the cells were cultured in the presence of the test compound for 6 hours. After that, the cell culture medium was collected in a 15 mL centrifuge tube (1000 rpm (240× g), room temperature, 5 min), followed by washing with PBS (1000 rpm (240× g), room temperature, 5 min). Then, the cells in the centrifuge tube were collected in a 1.5 mL tube (3000 rpm (860× g), 4° C., 5 min), lysed using RIPA buffer (25 mmol/L Tris-HCl (pH 7.4), 25 mmol/L NaCl, 0.5 mmol/L EGTA (pH 8.0), 0.1% SDS, 1% protease inhibitor), sonicated at ice temperature (cycles of [7.5 sec sonication, 5 sec off] for 5 min) and subjected to centrifugation (15000 rpm (21600× g), 4° C., 30 min). The thus-obtained supernatant was used as the protein solution. Using the BCA protein assay kit (Thermo Fisher Scientific: catalog number: 23225), the protein concentration of the protein solution of each test compound was measured according to the kit instructions, and then adjusted to 1.4 mg/mL with RIPA buffer. The thus-adjusted protein solutions were subjected to a fully automated Western blotting device (Simple Westerns Wes: proteinSimple) to detect the protein levels (JAK1, JAK2, JAK3, and Tyk2 as the target proteins, and GAPDH (Glyceraldehyde 3-phosphate dehydrogenase) as the internal standard protein) in the protein solutions by chemiluminescent Western blotting.
(§3) Furthermore, the luminescence levels of JAK1, JAK2, JAK3, and Tyk2 detected by chemiluminescent Western blotting were quantified numerically by using an analysis software (Compass software for Simple Western (version 4.0.0)) attached to the fully automated Western blotting device. The numerical values of the quantified luminescence levels were corrected by the protein levels of the internal standard protein, i.e., GAPDH, (target protein levels/GAPDH protein levels), and compared among the test compounds with dimethyl sulfoxide (DMSO) as 100%.
In general terms: Immunoblotting shows a protein as a band on a membrane.

The next assay concerns the target T2, JAK2 (Homo sapiens, UniProt O60674).
T2 construct: endogenous in cells; host or cells: Jurkat cells
Kind of assay: Degradation-inducing effect on JAK in Jurkat cells (chemiluminescent Western blotting), JAK2. The conditions noted are these: 1 μmol/L, 6 hours, corrected by GAPDH, DMSO as 100%. The procedure: as §1, §2, §3

The next assay addresses T3, Tyk2 (Homo sapiens, UniProt P29597).
T3 construct: endogenous in cells; host or cells: Jurkat cells
Kind of assay: Degradation-inducing effect on JAK in Jurkat cells (chemiluminescent Western blotting), Tyk2. Conditions: 1 μmol/L, 6 hours; for JAK protein ratio of Jurkat cells after treatment of each test compound: Tyk2: corrected by GAPDH, DMSO as 100%. The procedure: as §1, §2, §3

The target in a further assay is T4, JAK3 (Homo sapiens, UniProt P52333).
T4 construct: endogenous in cells; host or cells: Jurkat cells
T4 sequence (P52333 1-1124): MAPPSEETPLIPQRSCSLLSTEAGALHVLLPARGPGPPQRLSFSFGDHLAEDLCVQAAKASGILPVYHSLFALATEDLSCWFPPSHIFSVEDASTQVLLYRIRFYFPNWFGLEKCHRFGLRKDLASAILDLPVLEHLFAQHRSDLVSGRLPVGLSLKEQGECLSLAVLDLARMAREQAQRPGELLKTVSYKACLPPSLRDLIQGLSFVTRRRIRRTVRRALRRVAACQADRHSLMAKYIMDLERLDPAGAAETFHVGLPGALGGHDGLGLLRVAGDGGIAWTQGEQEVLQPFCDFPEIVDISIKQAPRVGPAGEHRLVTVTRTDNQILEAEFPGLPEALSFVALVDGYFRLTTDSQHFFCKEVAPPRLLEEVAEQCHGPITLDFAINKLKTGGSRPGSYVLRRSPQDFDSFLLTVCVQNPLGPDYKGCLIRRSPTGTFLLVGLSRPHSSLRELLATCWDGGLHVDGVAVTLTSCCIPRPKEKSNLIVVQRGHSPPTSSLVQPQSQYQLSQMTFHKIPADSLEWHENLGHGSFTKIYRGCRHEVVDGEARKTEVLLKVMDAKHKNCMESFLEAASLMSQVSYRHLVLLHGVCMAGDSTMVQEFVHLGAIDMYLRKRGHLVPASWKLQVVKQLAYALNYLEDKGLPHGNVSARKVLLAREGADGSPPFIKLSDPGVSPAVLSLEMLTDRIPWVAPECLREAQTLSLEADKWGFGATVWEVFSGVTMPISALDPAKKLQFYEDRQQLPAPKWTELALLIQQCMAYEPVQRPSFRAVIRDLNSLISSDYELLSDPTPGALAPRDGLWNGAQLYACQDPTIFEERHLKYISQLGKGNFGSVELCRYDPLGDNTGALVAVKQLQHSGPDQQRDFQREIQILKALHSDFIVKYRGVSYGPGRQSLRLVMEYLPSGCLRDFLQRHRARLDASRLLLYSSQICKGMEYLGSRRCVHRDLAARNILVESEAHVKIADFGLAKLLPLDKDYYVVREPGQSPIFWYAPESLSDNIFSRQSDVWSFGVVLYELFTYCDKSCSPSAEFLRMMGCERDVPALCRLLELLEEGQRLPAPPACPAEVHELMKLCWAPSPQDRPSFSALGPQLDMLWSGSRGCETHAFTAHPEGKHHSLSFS
Kind of assay: Degradation-inducing effect on JAK in Jurkat cells (chemiluminescent Western blotting), JAK3. The conditions noted are these: 1 μmol/L, 6 hours, corrected by GAPDH, DMSO as 100%, read-out: JAK protein ratio of Jurkat cells after treatment of each test compound: JAK3. The procedure:
as §1, §2, §3

T1 sequence (P23458 whole entry): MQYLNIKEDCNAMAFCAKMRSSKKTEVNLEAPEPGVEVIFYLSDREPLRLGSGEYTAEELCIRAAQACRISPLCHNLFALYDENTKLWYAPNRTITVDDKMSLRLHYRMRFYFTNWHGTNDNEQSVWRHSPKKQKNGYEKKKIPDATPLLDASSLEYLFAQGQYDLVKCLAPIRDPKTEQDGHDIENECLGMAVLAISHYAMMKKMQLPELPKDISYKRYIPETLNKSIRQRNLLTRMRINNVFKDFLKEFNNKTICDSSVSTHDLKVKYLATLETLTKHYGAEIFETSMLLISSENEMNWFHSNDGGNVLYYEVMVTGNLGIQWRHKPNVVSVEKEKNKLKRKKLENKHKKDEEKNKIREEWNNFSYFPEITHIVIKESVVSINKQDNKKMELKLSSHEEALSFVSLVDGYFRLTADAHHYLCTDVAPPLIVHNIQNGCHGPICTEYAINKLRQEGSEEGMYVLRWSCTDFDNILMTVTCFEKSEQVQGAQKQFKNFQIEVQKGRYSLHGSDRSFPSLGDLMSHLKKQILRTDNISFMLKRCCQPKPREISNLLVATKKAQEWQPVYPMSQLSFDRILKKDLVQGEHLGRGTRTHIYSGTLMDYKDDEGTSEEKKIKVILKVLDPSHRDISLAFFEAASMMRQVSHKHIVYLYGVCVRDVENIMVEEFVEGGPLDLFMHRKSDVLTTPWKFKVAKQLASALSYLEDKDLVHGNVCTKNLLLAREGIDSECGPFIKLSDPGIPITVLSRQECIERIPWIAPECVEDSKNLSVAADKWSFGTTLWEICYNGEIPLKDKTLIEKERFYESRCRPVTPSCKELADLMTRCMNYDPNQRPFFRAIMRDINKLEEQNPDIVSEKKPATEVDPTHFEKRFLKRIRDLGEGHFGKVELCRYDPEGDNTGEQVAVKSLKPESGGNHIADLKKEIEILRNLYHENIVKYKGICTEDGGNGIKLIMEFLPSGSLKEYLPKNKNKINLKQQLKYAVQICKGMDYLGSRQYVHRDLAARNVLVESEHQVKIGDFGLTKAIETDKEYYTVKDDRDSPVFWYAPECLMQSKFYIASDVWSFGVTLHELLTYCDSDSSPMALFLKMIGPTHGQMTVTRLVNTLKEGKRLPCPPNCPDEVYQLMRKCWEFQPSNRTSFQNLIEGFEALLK
T2 sequence (O60674 whole entry): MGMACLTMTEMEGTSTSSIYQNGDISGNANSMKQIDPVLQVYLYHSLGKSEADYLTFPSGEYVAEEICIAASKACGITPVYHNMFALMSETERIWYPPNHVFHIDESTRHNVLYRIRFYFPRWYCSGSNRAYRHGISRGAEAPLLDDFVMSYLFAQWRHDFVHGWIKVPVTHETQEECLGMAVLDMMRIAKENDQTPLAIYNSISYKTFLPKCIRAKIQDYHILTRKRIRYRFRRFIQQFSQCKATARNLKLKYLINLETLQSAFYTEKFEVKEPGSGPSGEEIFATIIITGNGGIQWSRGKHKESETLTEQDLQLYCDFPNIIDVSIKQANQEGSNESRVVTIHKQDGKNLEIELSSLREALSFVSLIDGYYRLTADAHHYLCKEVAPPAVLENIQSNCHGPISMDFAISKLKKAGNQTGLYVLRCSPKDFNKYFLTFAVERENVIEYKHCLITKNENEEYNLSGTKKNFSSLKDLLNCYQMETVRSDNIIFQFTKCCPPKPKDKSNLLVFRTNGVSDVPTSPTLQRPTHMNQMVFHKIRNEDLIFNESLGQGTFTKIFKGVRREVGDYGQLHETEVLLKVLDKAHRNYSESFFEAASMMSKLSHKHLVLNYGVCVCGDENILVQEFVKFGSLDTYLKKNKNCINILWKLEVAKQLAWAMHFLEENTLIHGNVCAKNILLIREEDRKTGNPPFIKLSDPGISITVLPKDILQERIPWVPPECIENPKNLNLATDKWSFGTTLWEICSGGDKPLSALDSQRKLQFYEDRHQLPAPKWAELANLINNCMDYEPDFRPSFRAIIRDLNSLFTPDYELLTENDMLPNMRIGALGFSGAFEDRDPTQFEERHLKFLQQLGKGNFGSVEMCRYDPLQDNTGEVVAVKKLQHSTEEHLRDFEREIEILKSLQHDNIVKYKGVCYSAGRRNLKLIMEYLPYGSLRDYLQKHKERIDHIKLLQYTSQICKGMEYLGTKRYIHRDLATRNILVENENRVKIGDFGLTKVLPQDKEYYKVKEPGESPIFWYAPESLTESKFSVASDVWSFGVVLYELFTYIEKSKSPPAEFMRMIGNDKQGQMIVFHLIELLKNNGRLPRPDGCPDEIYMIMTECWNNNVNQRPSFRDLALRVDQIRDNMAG
T3 sequence (P29597 whole entry): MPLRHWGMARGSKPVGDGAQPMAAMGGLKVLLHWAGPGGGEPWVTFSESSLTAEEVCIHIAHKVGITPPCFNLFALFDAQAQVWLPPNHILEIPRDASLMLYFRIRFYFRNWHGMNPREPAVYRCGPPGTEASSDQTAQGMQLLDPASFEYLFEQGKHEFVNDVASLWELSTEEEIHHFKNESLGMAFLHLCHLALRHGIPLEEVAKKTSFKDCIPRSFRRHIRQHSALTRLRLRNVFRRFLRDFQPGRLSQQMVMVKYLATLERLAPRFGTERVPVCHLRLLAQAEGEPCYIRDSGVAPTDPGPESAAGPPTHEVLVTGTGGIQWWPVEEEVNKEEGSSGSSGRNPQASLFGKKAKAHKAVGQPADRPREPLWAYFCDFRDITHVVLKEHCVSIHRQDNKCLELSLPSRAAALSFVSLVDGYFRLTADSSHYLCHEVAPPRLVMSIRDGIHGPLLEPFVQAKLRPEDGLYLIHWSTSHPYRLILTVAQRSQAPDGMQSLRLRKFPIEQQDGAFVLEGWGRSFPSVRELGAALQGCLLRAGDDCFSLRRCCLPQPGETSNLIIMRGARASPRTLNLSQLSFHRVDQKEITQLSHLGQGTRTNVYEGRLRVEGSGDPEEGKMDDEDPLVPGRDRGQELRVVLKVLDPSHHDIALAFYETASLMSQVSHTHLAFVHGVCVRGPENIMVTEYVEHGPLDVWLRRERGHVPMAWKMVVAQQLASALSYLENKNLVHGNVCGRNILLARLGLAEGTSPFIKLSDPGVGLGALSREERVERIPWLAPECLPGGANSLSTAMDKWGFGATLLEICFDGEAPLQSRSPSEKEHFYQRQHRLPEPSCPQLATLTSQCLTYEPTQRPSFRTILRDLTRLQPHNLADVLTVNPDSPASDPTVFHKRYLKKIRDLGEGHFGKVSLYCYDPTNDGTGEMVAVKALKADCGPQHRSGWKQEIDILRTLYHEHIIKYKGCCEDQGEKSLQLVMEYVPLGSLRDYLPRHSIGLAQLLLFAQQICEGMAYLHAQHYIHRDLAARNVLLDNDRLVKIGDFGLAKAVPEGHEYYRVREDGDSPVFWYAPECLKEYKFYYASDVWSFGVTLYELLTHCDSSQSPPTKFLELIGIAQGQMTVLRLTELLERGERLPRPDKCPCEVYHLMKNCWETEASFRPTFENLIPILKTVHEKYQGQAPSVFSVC

On to `CNC(=O)c1cnc(Nc2ccc(F)cn2)cc1Nc1cccc(C(=O)NCCCCCCCCCC(=O)N[C@H](C(=O)N2C[C@H](O)C[C@H]2C(=O)NCc2ccc(-c3scnc3C)cc2)C(C)(C)C)c1OC` [Comparative Example 1, 6-((5-Fluoropyridin-2-yl)amino)-4-((3-((10-(((S)-1-((2S,4R)-4-hydroxy 2-((4-(4-methylthiazol-5-yl)benzyl)carbamoyl)pyrrolidin-1-yl)-3,3-dimethyl-1-oxobutan-2-yl)amino)-10-oxodecyl)carbamoyl)-2-methoxyphenyl)amino)-N-methylnicotinamide, reference compound], for which, at JAK1, the “JAK protein ratio of Jurkat cells after treatment of each test compound: JAK1” value (shortened to “JAK protein ratio of Jurkat cells … JAK1”) came to 92.4%. At JAK2, the “JAK protein ratio of Jurkat cells after treatment of each test compound: JAK2” value (from here on “JAK protein ratio of Jurkat cells … JAK2”) amounted to 87.6%. On Tyk2, the “protein level of Tyk2 (in words)” value is given as “not reduced” and the “JAK protein ratio of Jurkat cells after treatment of each test compound: Tyk2” value (“JAK protein ratio of Jurkat cells … Tyk2” for short) came out at 78.9%. The JAK3 protein level relative to DMSO at 1 µM on JAK3 was 83.3%.
Consider `CNC(=O)c1cnc(Nc2ccc(F)cn2)cc1Nc1cccc(C(=O)OCCCCCCCCCC(=O)N[C@H](C(=O)N2C[C@H](O)C[C@H]2C(=O)NCc2ccc(-c3scnc3C)cc2)C(C)(C)C)c1OC` [Comparative Example 2, 10-(((S)-1-((2S,4R)-4-Hydroxy 2-((4-(4-methylthiazol-5-yl)benzyl)carbamoyl)pyrrolidin-1-yl)-3,3-dimethyl-1-oxobutan-2-yl)amino)-10-oxodecyl 3-((2-((5-fluoropyridin-2-yl)amino)-5-(methylcarbamoyl)pyridin-4-yl)amino)-2-methoxybenzoate, reference compound], for which the “JAK protein ratio of Jurkat cells … JAK1” value on JAK1 was determined as 108.7%. For the same compound, at JAK2, the “JAK protein ratio of Jurkat cells … JAK2” value came out at 101.7%. Also, on Tyk2, the “protein level of Tyk2 (in words)” value is listed as “not reduced” and the “JAK protein ratio of Jurkat cells … Tyk2” value is listed as 100.1%. On JAK3, the JAK3 protein level relative to DMSO at 1 µM was 89.8%.
Consider `CNC(=O)c1cnc(Nc2ccc(C(=O)NCCCC(=O)N[C@H](C(=O)N3C[C@H](O)C[C@H]3C(=O)NCc3ccc(-c4scnc4C)cc3)C(C)(C)C)cn2)cc1Nc1cccc(C(=O)NC)c1OC` [Example 1], for which the “JAK protein ratio of Jurkat cells … JAK1” value on JAK1 came out at 111.9%. In addition, on JAK2, the “JAK protein ratio of Jurkat cells … JAK2” value was determined as 121.3%. For the same compound, at Tyk2, the “JAK protein ratio of Jurkat cells … Tyk2” value is recorded as 82.8%. The JAK3 protein level relative to DMSO at 1 µM on JAK3 was determined as 114%.
For `CNC(=O)c1cnc(Nc2ccc(C(=O)NCCCCCC(=O)N[C@H](C(=O)N3C[C@H](O)C[C@H]3C(=O)NCc3ccc(-c4scnc4C)cc3)C(C)(C)C)cn2)cc1Nc1cccc(C(=O)NC)c1OC` [Example 2, 6-((5-((6-(((S)-1-((2S,4R)-4-Hydroxy-2-((4-(4-methylthiazol-5-yl)benzyl)carbamoyl)pyrrolidin-1-yl)-3,3-dimethyl-1-oxobutan-2-yl)amino)-6-oxohexyl)carbamoyl)pyridin-2-yl)amino)-4-((2-methoxy-3-(methylcarbamoyl)phenyl)amino)-N-methylnicotinamide], in that order: 139.2%, 112.6%, 48.8% and 118%.
For `CNC(=O)c1cnc(Nc2ccc(C(=O)NCCCCCCCC(=O)N[C@H](C(=O)N3C[C@H](O)C[C@H]3C(=O)NCc3ccc(-c4scnc4C)cc3)C(C)(C)C)cn2)cc1Nc1cccc(C(=O)NC)c1OC` [Example 3, 6-((5-((8-(((S)-1-((2S,4R)-4-Hydroxy-2-((4-(4-methylthiazol-5-yl)benzyl)carbamoyl)pyrrolidin-1-yl)-3,3-dimethyl-1-oxobutan-2-yl)amino)-8-oxooctyl)carbamoyl)pyridin-2-yl)amino)-4-((2-methoxy-3-(methylcarbamoyl)phenyl)amino)-N-methylnicotinamide], in that order: 118.2%, 117.6%, 51.6% and 97.5%.
For `CNC(=O)c1cnc(Nc2ccc(C(=O)NCCCCCCCCC(=O)N[C@H](C(=O)N3C[C@H](O)C[C@H]3C(=O)NCc3ccc(-c4scnc4C)cc3)C(C)(C)C)cn2)cc1Nc1cccc(C(=O)NC)c1OC` [Example 4, 6-((5-((9-(((S)-1-((2S,4R)-4-Hydroxy-2-((4-(4-methylthiazol-5-yl)benzyl)carbamoyl)pyrrolidin-1-yl)-3,3-dimethyl-1-oxobutan-2-yl)amino)-9-oxononyl)carbamoyl)pyridin-2-yl)amino)-4-((2-methoxy-3-(methylcarbamoyl)phenyl)amino)-N-methylnicotinamide], in that order: 129.1%, 158.8%, 41.7% and 129%.
For `CNC(=O)c1cnc(Nc2ccc(C(=O)NCCCCCCCCCC(=O)N[C@H](C(=O)N3C[C@H](O)C[C@H]3C(=O)NCc3ccc(-c4scnc4C)cc3)C(C)(C)C)cn2)cc1Nc1cccc(C(=O)NC)c1OC` [Example 5, 6-((5-((10-(((S)-1-((2S,4R)-4-Hydroxy-2-((4-(4-methylthiazol-5-yl)benzyl)carbamoyl)pyrrolidin-1-yl)-3,3-dimethyl-1-oxobutan-2-yl)amino)-10-oxodecyl)carbamoyl)pyridin-2-yl)amino)-4-((2-methoxy-3-(methylcarbamoyl)phenyl)amino)-N-methylnicotinamide], the “JAK protein ratio of Jurkat cells … JAK1” value on JAK1 amounted to 122.8%. On JAK2, the “JAK protein ratio of Jurkat cells … JAK2” value stood at 121.0%. Moreover, the “JAK protein ratio of Jurkat cells … Tyk2” value on Tyk2 was 23.1%. For the same compound, the JAK3 protein level relative to DMSO at 1 µM at JAK3 was 112%.
